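Tested at 5 concentrations; 48 h exposure; 96-well plates; endpoints linearly interpolated, else capped at highest concentration. GI50 is the concentration that inhibits growth by half.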 Calls of active or inactive are those of the source. Cut-off read from the data, not from the text of the source: active = GI50 up to about 1.1 µM and inactive = higher. Where a SMILES comes first, the peptide text is derived from it. [ ]: non-standard residue; d: D form. The star is where a group is joined. Octanoyl = CCCCCCCC(=O)*; Aib = CC(C)(N)C(=O)O; tBu = CC(C)(C)*
Key:
Assay in all cases: DTP human tumour cell line panel, 48 h
[1] = tested on: HCC 2998
[2] = tested on: SK-MEL-5
[3] = tested on: 786-0
[4] = tested on: SF-268
[5] = tested on: UACC-62
[6] = tested on: M14
[7] = tested on: MCF7
[8] = tested on: NCI-H460
[9] = tested on: Hs-578T
[10] = tested on: LOX IMVI
[11] = tested on: SF-295
[12] = tested on: TK-10
[13] = tested on: KM12
[14] = tested on: IGROV-1
[15] = tested on: MDA-MB-435
[16] = tested on: ACHN
[17] = tested on: COLO 205
[18] = tested on: Malme-3M
[19] = tested on: NCI-H522
[20] = tested on: MOLT-4

Compound	GI50 [1]	GI50 [2]	GI50 [3]	GI50 [4]	GI50 [5]	GI50 [6]	GI50 [7]	GI50 [8]	GI50 [9]	GI50 [10]	GI50 [11]	GI50 [12]	GI50 [13]	GI50 [14]	GI50 [15]	GI50 [16]	GI50 [17]	GI50 [18]	GI50 [19]	GI50 [20]
O=C(O)C[S+]([O-])c1ccc2c3c(cccc13)C(=O)c1ccccc1-2 (stereo unspecified)	> 100 µM (inactive)	> 100 µM (inactive)	> 100 µM (inactive)	> 100 µM (inactive)	> 100 µM (inactive)	> 100 µM (inactive)	> 100 µM (inactive)	> 100 µM (inactive)	> 100 µM (inactive)	> 100 µM (inactive)	> 100 µM (inactive)	> 100 µM (inactive)	> 100 µM (inactive)	> 100 µM (inactive)	> 100 µM (inactive)	> 100 µM (inactive)	> 100 µM (inactive)	> 100 µM (inactive)	> 100 µM (inactive)	
OCc1cn(Cc2ccccc2)c2ccccc12		25.7 µM (inactive)	10.7 µM (inactive)	14 µM (inactive)	0.646 µM (active)	> 32.6 µM (inactive)	0.612 µM (active)	0.135 µM (active)	12.9 µM (inactive)	19.5 µM (inactive)		< 0.0359 µM (active)	> 48 µM (inactive)	< 0.0356 µM (active)	> 51.9 µM (inactive)	28.1 µM (inactive)	0.444 µM (active)	5.46 µM (inactive)	4.65 µM (inactive)	> 47.3 µM (inactive)
CC(=C\c1ccccc1)/C=C(\C#N)C(N)=O	> 10 µM (inactive)	> 10 µM (inactive)	> 10 µM (inactive)	> 10 µM (inactive)		> 10 µM (inactive)	> 10 µM (inactive)	> 10 µM (inactive)	> 10 µM (inactive)	> 10 µM (inactive)	> 10 µM (inactive)	> 10 µM (inactive)	> 10 µM (inactive)	> 10 µM (inactive)	> 10 µM (inactive)	> 10 µM (inactive)	> 10 µM (inactive)	> 10 µM (inactive)	> 10 µM (inactive)	
NC(=O)C(C(N)=O)=C(O)/C(O)=C/C(=O)c1ccccc1	> 100 µM (inactive)	73.8 µM (inactive)	> 100 µM (inactive)	> 100 µM (inactive)	> 100 µM (inactive)	> 100 µM (inactive)	0.849 µM (active)	> 100 µM (inactive)	> 100 µM (inactive)	89.9 µM (inactive)	> 100 µM (inactive)	> 100 µM (inactive)	> 100 µM (inactive)	> 100 µM (inactive)	> 100 µM (inactive)	> 100 µM (inactive)	> 100 µM (inactive)	39.9 µM (inactive)	16.4 µM (inactive)	
O=C(O)C1CC(C2CCCCN2)CN2CCCCC12 (stereo unspecified)	> 100 µM (inactive)	> 100 µM (inactive)	> 100 µM (inactive)	> 100 µM (inactive)	> 100 µM (inactive)	> 100 µM (inactive)	> 100 µM (inactive)	> 100 µM (inactive)	> 100 µM (inactive)	> 100 µM (inactive)	> 100 µM (inactive)	> 100 µM (inactive)	> 100 µM (inactive)	> 100 µM (inactive)	> 100 µM (inactive)	> 100 µM (inactive)	> 100 µM (inactive)	> 100 µM (inactive)		> 100 µM (inactive)
COc1ccc2oc(=N)c(C(=O)Nc3cccc4ccccc34)cc2c1	58.7 µM (inactive)	> 100 µM (inactive)	11.8 µM (inactive)	25.9 µM (inactive)	2.47 µM (inactive)	17.9 µM (inactive)	5.7 µM (inactive)	3.95 µM (inactive)	30.2 µM (inactive)		5.41 µM (inactive)	19.6 µM (inactive)	27.7 µM (inactive)		0.319 µM (active)	25.5 µM (inactive)	> 100 µM (inactive)	8.65 µM (inactive)		
C=C(Cl)/C(=C\Cl)CCC(Br)C(C)C (stereo unspecified)	> 100 µM (inactive)	> 100 µM (inactive)	60.1 µM (inactive)	> 100 µM (inactive)	51.8 µM (inactive)	64.3 µM (inactive)	48.9 µM (inactive)	> 100 µM (inactive)	> 100 µM (inactive)	15.8 µM (inactive)	> 100 µM (inactive)	> 100 µM (inactive)	> 100 µM (inactive)	> 100 µM (inactive)	81.5 µM (inactive)	> 100 µM (inactive)	> 100 µM (inactive)		21.1 µM (inactive)	37.9 µM (inactive)
O=C1C(/C=C/c2ccc(Cl)cc2)=NNC2N1N=C1NC(=O)C3(NN12)c1ccccc1-c1ccccc13 (stereo unspecified)	> 100 µM (inactive)	> 100 µM (inactive)	> 100 µM (inactive)	> 100 µM (inactive)	> 100 µM (inactive)	> 100 µM (inactive)	26.5 µM (inactive)	> 100 µM (inactive)	65.6 µM (inactive)	> 100 µM (inactive)	> 100 µM (inactive)	> 100 µM (inactive)		> 100 µM (inactive)	60.8 µM (inactive)	> 100 µM (inactive)	> 100 µM (inactive)	> 100 µM (inactive)	> 100 µM (inactive)	
C=CCOC(=O)CC[C@H](NC(=O)[C@@H](CCC(F)(F)F)Cc1ccc(O)cc1)C(=O)OCC=C		18.5 µM (inactive)	86.9 µM (inactive)	41 µM (inactive)	34 µM (inactive)	21.3 µM (inactive)	20.7 µM (inactive)		36.7 µM (inactive)	55.2 µM (inactive)	> 100 µM (inactive)		> 100 µM (inactive)	> 100 µM (inactive)	25.4 µM (inactive)	47.9 µM (inactive)	21.3 µM (inactive)	20.2 µM (inactive)	24.3 µM (inactive)	27.7 µM (inactive)
CC(C)CC(NC=O)C(=O)NC(Cc1ccccc1)NC(=O)CNC(=O)C(C)NC(=O)OC(C)(C)C (stereo unspecified)		> 100 µM (inactive)	> 100 µM (inactive)	> 100 µM (inactive)	> 100 µM (inactive)	> 100 µM (inactive)	> 100 µM (inactive)	> 100 µM (inactive)	> 100 µM (inactive)	> 100 µM (inactive)	> 100 µM (inactive)	> 100 µM (inactive)	> 100 µM (inactive)	> 100 µM (inactive)	> 100 µM (inactive)	> 100 µM (inactive)	> 100 µM (inactive)	> 100 µM (inactive)	> 100 µM (inactive)	> 100 µM (inactive)
CC1COC(c2cn[nH]c2C(N)=O)C1O (stereo unspecified)		> 100 µM (inactive)	> 100 µM (inactive)	> 100 µM (inactive)	> 100 µM (inactive)	> 100 µM (inactive)	> 100 µM (inactive)	> 100 µM (inactive)	> 100 µM (inactive)	> 100 µM (inactive)	> 100 µM (inactive)	> 100 µM (inactive)	> 100 µM (inactive)	> 100 µM (inactive)	> 100 µM (inactive)	> 100 µM (inactive)	> 100 µM (inactive)		> 100 µM (inactive)	> 100 µM (inactive)
CC(C)(C)n1c(=O)[nH]n(C2NN=Cc3cccc4cccc2c34)c1=O (stereo unspecified)	39.5 µM (inactive)		57.1 µM (inactive)	26.1 µM (inactive)	23.9 µM (inactive)	48 µM (inactive)	30.6 µM (inactive)	30.1 µM (inactive)	39.4 µM (inactive)	26.9 µM (inactive)		41.3 µM (inactive)	34 µM (inactive)		34.3 µM (inactive)		30 µM (inactive)	36 µM (inactive)		20.8 µM (inactive)
CC(C)n1c(=O)c2nn3c(=O)n(C(C)C)c(=O)c3nn2c1=O	> 100 µM (inactive)	> 100 µM (inactive)	> 100 µM (inactive)	> 100 µM (inactive)	> 100 µM (inactive)	> 100 µM (inactive)	> 100 µM (inactive)	> 100 µM (inactive)	> 100 µM (inactive)	> 100 µM (inactive)	> 100 µM (inactive)	> 100 µM (inactive)	> 100 µM (inactive)	> 100 µM (inactive)	> 100 µM (inactive)	> 100 µM (inactive)	> 100 µM (inactive)	> 100 µM (inactive)		> 100 µM (inactive)
O=C1Nc2ccc(S(=O)(=O)O)cc2/C1=N/Nc1ccccc1[N+](=O)[O-]		> 100 µM (inactive)	> 100 µM (inactive)	> 100 µM (inactive)	35 µM (inactive)	> 100 µM (inactive)	> 100 µM (inactive)	> 100 µM (inactive)	> 100 µM (inactive)	> 100 µM (inactive)	> 100 µM (inactive)	> 100 µM (inactive)	> 100 µM (inactive)	> 100 µM (inactive)	> 100 µM (inactive)	> 100 µM (inactive)	> 100 µM (inactive)	> 100 µM (inactive)	> 100 µM (inactive)	> 100 µM (inactive)
CCCCCCCC(=O)NC(C)(C)C(=O)NC(COC(C)(C)C)C(=O)NC(CC(C)C)C(=O)NC(C)(C)C(=O)NC(COC(C)(C)C)C(=O)NC(COC(C)(C)C)C(=O)NC(CC(C)C)C(=O)NC(C)(C)C(=O)NC(COC(C)(C)C)C(=O)NC(C(=O)NC(CC(C)C)C(=O)OC)C(C)CC (stereo unspecified) (Octanoyl-[Aib]S(tBu)L[Aib]S(tBu)S(tBu)L[Aib]S(tBu)IL-OMe; configuration not given here)		6.22 µM (inactive)	7.89 µM (inactive)	9.95 µM (inactive)	7.8 µM (inactive)	6.32 µM (inactive)	5.98 µM (inactive)	5.64 µM (inactive)	8.85 µM (inactive)	5.61 µM (inactive)	6.4 µM (inactive)	7.14 µM (inactive)	6.67 µM (inactive)	5.7 µM (inactive)	7.94 µM (inactive)	7.62 µM (inactive)	6.55 µM (inactive)		6.41 µM (inactive)	5.52 µM (inactive)

From ChEMBL document CHEMBL1201862, “PubChem BioAssay data set” (2004)
